Source: patent US10645928B2, “Pesticidally active polycyclic derivatives with sulfur containing substituents” (Syngenta Participations AG, priority 2014, dated 2020)

Legend:
Format in all cases: in vivo
[1] = tested on: Spodoptera littoralis (Egyptian Cotton Leaf Worm); assay: Example B20: Spodoptera littoralis, compound in agar absorbed by lettuce roots, mortality; conditions: 144 h, test rate of 12.5 ppm, uptake by lettuce roots, Spodoptera eggs, 6 days after infestation
Excerpt: Test compounds were applied by pipette prepared from 10,000 ppm DMSO stock solutions into 24-well plates and mixed with agar. Lettuce seeds were placed onto the agar and the multi well plate was closed by another plate which contained also agar. After 7 days the compound was absorbed by the roots and the lettuce grew into the lid plate. The lettuce leaves were then cut off into the lid plate.
Spodoptera eggs were pipetted through a plastic stencil onto a humid gel blotting paper and the lid plate was closed with it. The samples were assessed for mortality 6 days after infestation.

[2] = tested on: Spodoptera littoralis (Egyptian Cotton Leaf Worm); assay: Example B19: Spodoptera littoralis, compound in agar absorbed by lettuce roots, anti-feedant effect; conditions: 144 h, test rate of 12.5 ppm, uptake by lettuce roots, Spodoptera eggs, 6 days after infestation, read-out: anti-feeding
Excerpt: (§1) Test compounds were applied by pipette prepared from 10,000 ppm DMSO stock solutions into 24-well plates and mixed with agar. Lettuce seeds were placed onto the agar and the multi well plate was closed by another plate which contained also agar. After 7 days the compound was absorbed by the roots and the lettuce grew into the lid plate. The lettuce leaves were then cut off into the lid plate. Spodoptera eggs were pipetted through a plastic stencil onto a humid gel blotting paper and the lid plate was closed with it. The samples were assessed for anti-feedant effect in comparison to untreated samples 6 days after infestation.

[3] = tested on: Frankliniella occidentalis (Western Flower Thrips); assay: Example B7: Frankliniella occidentalis, sprayed sunflower leaf discs, mortality; conditions: foliar, 168 h, application rate of 200 ppm, population of mixed ages, 7 days after infestation
Protocol: Sunflower leaf discs were placed on agar in 24-well microtiter plates and sprayed with aqueous test solutions prepared from 10,000 DMSO stock solutions. After drying the leaf discs were infested with a Frankliniella population of mixed ages. The samples were assessed for mortality 7 days after infestation.

[4] = tested on: Plutella xylostella (Diamond Back Moth); assay: Example B13: Plutella xylostella, treated artificial diet, mortality and growth inhibition; conditions: 120 h, application rate of 200 ppm, L2 larvae, 5 days after infestation, read-out: effect in at least one of the two categories (mortality or growth inhibition)
Protocol: (§2) 24-well microtiter plates with artificial diet were treated with aqueous test solutions prepared from 10,000 ppm DMSO stock solutions by pipetting. After drying, the plates were infested with L2 larvae (10 to 15 per well). The samples were assessed for mortality and growth inhibition in comparison to untreated samples 5 days after infestation.

[5] = tested on: Euschistus heros (Neotropical Brown Stink Bug); assay: Example B6: Euschistus heros, sprayed soybean leaves, mortality and growth inhibition; conditions: 120 h, application rate of 200 ppm, N2 nymphs, 5 days after infestation, read-out: effect in at least one of the two categories (mortality or growth inhibition)
Protocol: Soybean leaves on agar in 24-well microtiter plates were sprayed with aqueous test solutions prepared from 10,000 ppm DMSO stock solutions. After drying the leaves were infested with N2 nymphs. The samples were assessed for mortality and growth inhibition in comparison to untreated samples 5 days after infestation.

[6] = tested on: Spodoptera littoralis (Egyptian Cotton Leaf Worm); assay: Example B17: Spodoptera littoralis, sprayed cotton leaf discs, mortality, anti-feeding effect and growth inhibition; conditions: foliar, 72 h, application rate of 200 ppm, L1 larvae, 3 days after infestation, read-out: control (at least one of mortality, anti-feedant effect, growth inhibition)
Protocol: (§3) Cotton leaf discs were placed onto agar in 24-well microtiter plates and sprayed with aqueous test solutions prepared from 10,000 ppm DMSO stock solutions. After drying the leaf discs were infested with five L1 larvae. The samples were assessed for mortality, anti-feeding effect, and growth inhibition in comparison to untreated samples 3 days after infestation. Control of Spodoptera littoralis by a test sample is given when at least one of the categories mortality, anti-feedant effect, and growth inhibition is higher than the untreated sample.

[7] = tested on: Spodoptera littoralis (Egyptian Cotton Leaf Worm); assay: Example B14: Spodoptera littoralis, sprayed cotton leaf discs, anti-feeding effect; conditions: foliar, 72 h, application rate of 200 ppm, L1 larvae, 3 days after infestation
Protocol: as §3, with “for” for “for mortality,”, “effect” for “effect, and growth inhibition”, “when” for “when at least one of”, “the” for “the categories mortality,”

[8] = tested on: Spodoptera littoralis (Egyptian Cotton Leaf Worm); assay: Example B16: Spodoptera littoralis, sprayed cotton leaf discs, mortality; conditions: foliar, 72 h, application rate of 200 ppm, L1 larvae, 3 days after infestation
Protocol: Cotton leaf discs were placed onto agar in 24-well microtiter plates and sprayed with aqueous test solutions prepared from 10,000 ppm DMSO stock solutions. After drying the leaf discs were infested with five L1 larvae. The samples were assessed for mortality 3 days after infestation.

[9] = tested on: Bemisia tabaci (Cotton White Fly); assay: Example B1: Bemisia tabaci, sprayed cotton leaf discs, mortality; conditions: foliar, 144 h, application rate of 200 ppm, adult white flies, 6 days after incubation
Protocol: Cotton leaf discs were placed on agar in 24-well microtiter plates and sprayed with aqueous test solutions prepared from 10,000 ppm DMSO stock solutions. After drying the leaf discs were infested with adult white flies. The samples were checked for mortality 6 days after incubation.

[10] = tested on: Diabrotica balteata (Corn Root Worm); assay: Example B2: Diabrotica balteata, sprayed maize sprouts, mortality and growth inhibition; conditions: 96 h, application rate of 200 ppm, L2 larvae, 4 days after infestation, read-out: effect in at least one of the two categories (mortality or growth inhibition)
Protocol: as §2, with “Maize sprouts placed onto an agar layer in 24-well” for “24-well”, “plates” for “plates with artificial diet”, “spraying.” for “pipetting.”, “(6” for “(10”, “10” for “15”, “4” for “5”

[11] = tested on: Spodoptera littoralis (Egyptian Cotton Leaf Worm); assay: Example B18: Spodoptera littoralis, compound in agar absorbed by lettuce roots, mortality, anti-feedant effect and growth inhibition; conditions: 144 h, test rate of 12.5 ppm, uptake by lettuce roots, Spodoptera eggs, 6 days after infestation, read-out: effect in at least one of the three categories (mortality, anti-feeding, or growth inhibition)
Excerpt: as §1, with “pipette” for “pipette prepared”, “for mortality,” for “for”, “effect and growth inhibition” for “effect”

[12] = tested on: Euschistus heros (Neotropical Brown Stink Bug); assay: Example B5: Euschistus heros, sprayed soybean leaves, mortality; conditions: 120 h, application rate of 200 ppm, N2 nymphs, 5 days after infestation
Protocol: Soybean leaves on agar in 24-well microtiter plates were sprayed with aqueous test solutions prepared from 10,000 ppm DMSO stock solutions. After drying the leaves were infested with N2 nymphs. The samples were assessed for mortality 5 days after infestation.

[13] = tested on: Plutella xylostella (Diamond Back Moth); assay: Example B12: Plutella xylostella, treated artificial diet, mortality; conditions: 120 h, application rate of 200 ppm, L2 larvae, 5 days after infestation
Protocol: 24-well microtiter plates with artificial diet were treated with aqueous test solutions prepared from 10,000 ppm DMSO stock solutions by pipetting. After drying, the plates were infested with L2 larvae (10 to 15 per well). The samples were assessed for mortality 5 days after infestation.

[14] = tested on: Diabrotica balteata (Corn Root Worm); assay: Example B3: Diabrotica balteata, sprayed maize sprouts, mortality; conditions: 96 h, application rate of 200 ppm, L2 larvae, 4 days after infestation
Protocol: Maize sprouts placed onto an agar layer in 24-well microtiter plates were treated with aqueous test solutions prepared from 10,000 ppm DMSO stock solutions by spraying. After drying, the plates were infested with L2 larvae (6 to 10 per well). The samples were assessed for mortality 4 days after infestation.

[15] = tested on: Plutella xylostella (Diamond Back Moth); assay: Example B10: Plutella xylostella, treated artificial diet, growth inhibition; conditions: 120 h, application rate of 200 ppm, L2 larvae, 5 days after infestation
Protocol: as §2, with “for” for “for mortality and”, “infestation. Control of Plutella xylostella by a test sample is given when the growth inhibition is higher than the untreated sample.” for “infestation.”

[16] = tested on: Aedes aegypti (Yellow Fever Mosquito); assay: Example B23: Aedes aegypti, dry deposits in 12 well tissue culture plates, control; conditions: application rate of 200 ppm in ethanol, adult females, after 48 h and/or 24 h
Protocol: Test solutions, at an application rate of 200 ppm in ethanol, were applied to 12 well tissue culture plates. Once the deposits were dry, five, two to five day old adult female Aedes aegypti were added to each well, and sustained with a 10% sucrose solution in a cotton wool plug. Assessment of knockdown was made one hour after introduction, and mortality was assessed at 24 and 48 hours after introduction.

[17] = tested on: Spodoptera littoralis (Egyptian Cotton Leaf Worm); assay: Example B15: Spodoptera littoralis, sprayed cotton leaf discs, growth inhibition; conditions: foliar, 72 h, application rate of 200 ppm, L1 larvae, 3 days after infestation, read-out: control (growth inhibition)
Protocol: as §3, with “for” for “for mortality, anti-feeding effect, and”, “when” for “when at least one of”, “the” for “the categories mortality, anti-feedant effect, and”

[18] = tested on: Myzus persicae (Green Peach Aphid); assay: Example B8: Myzus persicae, sprayed sunflower leaf discs, mortality; conditions: foliar, 144 h, application rate of 200 ppm, leaf disc spray, aphid population of mixed ages, 6 days after infestation
Protocol: Sunflower leaf discs were placed onto agar in a 24-well microtiter plate and sprayed with aqueous test solutions prepared from 10,000 ppm DMSO stock solutions. After drying, the leaf discs were infested with an aphid population of mixed ages. The samples were assessed for mortality 6 days after infestation.

CCS(=O)(=O)c1cc(-c2ccc(Cl)cc2)cnc1-c1cn2cnc(C(F)(F)C(F)(F)F)cc2n1 [Compound P15]
≥ 80%: mortality at 12.5 ppm [1] | pest or weed control at 12.5 ppm [2] | mortality at 200 ppm [3] | percent effect (mortality or growth inhibition) at 200 ppm [4] | percent effect (mortality or growth inhibition) at 200 ppm [5] | percent control (mortality, anti-feedant effect or growth inhibition) at 200 ppm [6] | pest or weed control at 200 ppm [7] | mortality at 200 ppm [8] | mortality at 200 ppm [9] | percent effect (mortality or growth inhibition) at 200 ppm [10] | percent effect (mortality, anti-feeding or growth inhibition) at 12.5 ppm [11] | mortality at 200 ppm [12] | mortality at 200 ppm [13]

CCS(=O)(=O)c1cc(-c2cccc(SC)c2)cnc1-c1cn2cnc(C(F)(F)F)cc2n1 [Compound P9]
≥ 80%: mortality at 200 ppm [14] | inhibition at 200 ppm [15] | pest or weed control at 200 ppm [16] | percent effect (mortality or growth inhibition) at 200 ppm [4] | percent effect (mortality or growth inhibition) at 200 ppm [5] | percent control (mortality, anti-feedant effect or growth inhibition) at 200 ppm [6] | pest or weed control at 200 ppm [7] | mortality at 200 ppm [8] | percent effect (mortality or growth inhibition) at 200 ppm [10] | mortality at 200 ppm [12] | inhibition at 200 ppm [17] | mortality at 200 ppm [13]

CCS(=O)(=O)c1cc(-n2ccc(C(F)(F)F)n2)cnc1-c1cn2cnc(C(F)(F)F)cc2n1 [Compound P4, 2-[3-ethylsulfonyl-5-[3-(trifluoromethyl)pyrazol-1-yl]-2-pyridyl]-7-(trifluoromethyl)imidazo[1,2-c]pyrimidine]
≥ 80%: mortality at 200 ppm [14] | mortality at 12.5 ppm [1] | pest or weed control at 12.5 ppm [2] | pest or weed control at 200 ppm [16] | percent effect (mortality or growth inhibition) at 200 ppm [4] | percent effect (mortality or growth inhibition) at 200 ppm [5] | percent control (mortality, anti-feedant effect or growth inhibition) at 200 ppm [6] | pest or weed control at 200 ppm [7] | mortality at 200 ppm [8] | mortality at 200 ppm [9] | percent effect (mortality or growth inhibition) at 200 ppm [10] | percent effect (mortality, anti-feeding or growth inhibition) at 12.5 ppm [11] | mortality at 200 ppm [12] | mortality at 200 ppm [13]

CCS(=O)(=O)c1cc(-c2ccc(C#N)cc2)cnc1-c1cn2cnc(C(F)(F)F)cc2n1 [Compound P10]
≥ 80%: mortality at 200 ppm [14] | mortality at 200 ppm [3] | percent effect (mortality or growth inhibition) at 200 ppm [4] | percent control (mortality, anti-feedant effect or growth inhibition) at 200 ppm [6] | pest or weed control at 200 ppm [7] | mortality at 200 ppm [8] | mortality at 200 ppm [9] | percent effect (mortality or growth inhibition) at 200 ppm [10] | inhibition at 200 ppm [17] | mortality at 200 ppm [13]

CCS(=O)(=O)c1cc(C2CC2)cnc1-c1cn2cnc(C(F)(F)F)cc2n1 [Compound P16, 2-(5-cyclopropyl-3-ethylsulfonyl-2-pyridyl)-7-(trifluoromethyl)imidazo [1,2-c]pyrimidine]
≥ 80%: mortality at 200 ppm [14] | inhibition at 200 ppm [15] | mortality at 200 ppm [3] | pest or weed control at 200 ppm [16] | percent effect (mortality or growth inhibition) at 200 ppm [4] | percent effect (mortality or growth inhibition) at 200 ppm [5] | percent control (mortality, anti-feedant effect or growth inhibition) at 200 ppm [6] | pest or weed control at 200 ppm [7] | mortality at 200 ppm [8] | mortality at 200 ppm [18] | percent effect (mortality or growth inhibition) at 200 ppm [10] | mortality at 200 ppm [12] | inhibition at 200 ppm [17] | mortality at 200 ppm [13]
